The half-life is how long it takes for the measured level to halve. What is called IC50 is the concentration that inhibits the measured activity by half.

Data set [1] can be described thus: Half-life was determined. The format is ADME. Particulars: human.
For a further data set, the species on record is Cavia porcellus. Description: In vitro inhibition of contractions in the electrically stimulated guinea pig ileum. Format: functional.
Data set [2] concerns Mus musculus. Description: In vivo analgesic activity in the mouse tail-flick assay following i.c.v. administration. Format: functional. In general terms: Hot-plate and tail-flick tests time the reaction to a heat stimulus.
Data set [3] has as its system Mus musculus. Kind of data set: In vivo analgesic activity in the mouse tail-flick assay following s.c. administration. Format: functional. As to conditions: sc.
Data set [4] is described as follows: Half-life of the compound. The format is ADME.
Data set [5] concerns Mus musculus. Kind of data set: In vivo analgesic potency in mice compared to morphine after s.c. administration. The format is functional.
The test system of data set [6] is Mus musculus. Description: In vivo analgesic potency in mice compared to morphine after i.c.v. administration. Format: functional.

For `CCONC(=O)CC(=O)N[C@H](Cc1ccccc1)NC(=O)[C@@H](C)NC(=O)[C@@H](N)Cc1ccc(O)cc1`, in data set [1], the half-life worked out at 30 min. This compound also returned an IC50 in the data set filed under Cavia porcellus of 320 nM. The compound further displayed an ED50 in the data set with Mus musculus [2] of 1630 pmol/mouse.
On to `C[C@@H](NC(=O)[C@@H](N)Cc1ccc(O)cc1)C(=O)N[C@@H](Cc1ccccc1)NC(=O)CC(=O)NC12CC3CC(CC(C3)C1)C2`, for which the figures for the ED50 with Mus musculus [3] and with Mus musculus [2] were 55.5 µmol/kg and 88.4 pmol/mouse, respectively. Moreover, the half-life was found to be 65 min in data set [1] and 50 min in data set [4]. Further, the IC50 in the data set filed under Cavia porcellus came out at 4.45 nM.
Regarding `C[C@@H](NC(=O)[C@@H](N)Cc1ccc(O)cc1)C(=O)N[C@@H](Cc1ccccc1)C(=O)NCC(N)=O`, the ED50 in the data set on Mus musculus [3] came out at 68.1 µmol/kg; in the data set with Mus musculus [2] it was 68 pmol/mouse. This compound had a half-life in data set [1] of 30 min. The IC50 in the data set filed under Cavia porcellus stood at 45.2 nM.
In data set [1], `C[C@@H](NC(=O)[C@@H](N)Cc1ccc(O)cc1)C(=O)N[C@@H](Cc1ccccc1)C(=O)NCNC=O` showed a half-life of 40 min. Also, in the data set filed under Cavia porcellus, the midpoint of inhibition, the IC50, lay at 39.2 nM. This compound also yielded an ED50 with Mus musculus [2] of 157 pmol/mouse.
Turning to `C[C@@H](NC(=O)[C@@H](N)Cc1ccc(O)cc1)C(=O)N[C@@H](Cc1ccccc1)C(=O)NCC(=O)N[C@@H](Cc1ccc(O)cc1)C(=O)N1CCC[C@H]1C(=O)N[C@@H](CO)C(N)=O` [DERMORPHIN], the ED50 in the data set with Mus musculus [3] was 2.75 µmol/kg; in the data set with Mus musculus [2], 11.4 pmol/mouse. Moreover, the figures for the half-life in data set [1] and in data set [4] were 40 min and 35 min, respectively.
Consider `C[C@@H](NC(=O)[C@@H](N)Cc1ccc(O)cc1)C(=O)N[C@@H](Cc1ccccc1)NC(=O)CC(=O)NCc1ccccc1`, for which the half-life in data set [1] came out at 35 min. The compound further gave a half-inhibitory concentration (IC50) in the data set listed under Cavia porcellus of 18.2 nM. In the data set on Mus musculus [2], this compound had an ED50 of 556 pmol/mouse.
Turning to `CC(C(=O)NCNC(=O)[C@H](Cc1ccccc1)NC(=O)[C@@H](C)NC(=O)[C@@H](N)Cc1ccc(O)cc1)c1ccccc1` (stereo partly specified), the ED50 with Mus musculus [3] is 39.5 µmol/kg; in the data set with Mus musculus [2], 19.2 pmol/mouse. For the same compound, the half-life in data set [1] and in data set [4] was 65 min in each case. In the data set listed under Cavia porcellus, this compound displayed a concentration for half-maximal inhibition (IC50) of 0.5 nM.
As for `CN1CC[C@]23c4c5ccc(O)c4O[C@H]2[C@@H](O)C=C[C@H]3[C@H]1C5` [MORPHINE], the ED50 in the data set with Mus musculus [3] was determined as 10.9 µmol/kg; in the data set on Mus musculus [2], 3030 pmol/mouse.
For the compound `C[C@@H](NC(=O)[C@@H](N)Cc1ccc(O)cc1)C(=O)N(C)[C@@H](Cc1ccccc1)NC(=O)CNC(=O)C12CC3CC(CC(C3)C1)C2`, the half-life in data set [1] amounted to 55 min. The IC50 in the data set filed under Cavia porcellus was 19.2 nM. The compound also gave an ED50 in the data set with Mus musculus [2] of 246 pmol/mouse.
`CCONC(=O)CNC(=O)[C@H](Cc1ccccc1)NC(=O)[C@@H](C)NC(=O)[C@@H](N)Cc1ccc(O)cc1` came in with a half-life in data set [1] of 20 min. Besides, inhibition in the data set filed under Cavia porcellus was half-maximal at 191 nM (IC50). Further, the ED50 with Mus musculus [2] is 492 pmol/mouse.
For `CC(NC(=O)CNC(=O)[C@H](Cc1ccccc1)NC(=O)[C@@H](C)NC(=O)[C@@H](N)Cc1ccc(O)cc1)c1ccccc1` (stereo partly specified), the figures for the ED50 in the data set on Mus musculus [3] and with Mus musculus [2] were 13.6 µmol/kg and 7.61 pmol/mouse, respectively. The half-life in data set [1] turned out to be 40 min. This compound showed an IC50 in the data set filed under Cavia porcellus of 0.59 nM.
With `C[C@@H](NC(=O)[C@@H](N)Cc1ccc(O)cc1)C(=O)N[C@@H](Cc1ccccc1)C(=O)NCC(=O)NO`, the half-life in data set [1] came to 25 min. Moreover, in the data set filed under Cavia porcellus, the concentration for half-maximal inhibition (IC50) stood at 108 nM. The ED50 in the data set on Mus musculus [2] turned out to be 140 pmol/mouse.
On to `C[C@@H](NC(=O)[C@@H](N)Cc1ccc(O)cc1)C(=O)N(C)[C@@H](Cc1ccccc1)NC(=O)CNC=O`, for which, in data set [1], the half-life was found to be 35 min. Also, 380 nM corresponded to half-maximal inhibition in the data set listed under Cavia porcellus (IC50). In the data set on Mus musculus [2], this compound came in with an ED50 of 642 pmol/mouse.
In data set [1], `CC(C(=O)NCC(=O)N[C@H](Cc1ccccc1)N(C)C(=O)[C@@H](C)NC(=O)[C@@H](N)Cc1ccc(O)cc1)c1ccccc1` (stereo partly specified) registered a half-life of 60 min. The compound also showed a half-inhibitory concentration (IC50) in the data set filed under Cavia porcellus of 31.2 nM. Moreover, the ED50 in the data set on Mus musculus [2] came out at 269 pmol/mouse.
In data set [1], `C[C@@H](NC(=O)[C@@H](N)Cc1ccc(O)cc1)C(=O)N[C@@H](Cc1ccccc1)C(=O)NCC(=O)NCc1ccccc1` had a half-life of 30 min. In addition, the IC50 in the data set filed under Cavia porcellus came out at 2.97 nM. In the data set with Mus musculus [2], the ED50 is 33.1 pmol/mouse.
Turning to `C[C@@H](NC(=O)[C@@H](N)Cc1ccc(O)cc1)C(=O)N[C@@H](Cc1ccccc1)C(=O)NCNC(=O)Cc1ccccc1`, the ED50 in the data set on Mus musculus [3] was found to be 27.8 µmol/kg; with Mus musculus [2] it was 74.1 pmol/mouse. The half-life in data set [1] worked out at 60 min; in data set [4], 45 min. The compound further gave an IC50 in the data set filed under Cavia porcellus of 2.12 nM.
In the case of `C[C@@H](NC(=O)[C@@H](N)Cc1ccc(O)cc1)C(=O)N[C@@H](Cc1ccccc1)C(=O)NCC(=O)NC12CC3CC(CC(C3)C1)C2`, the ED50 in the data set with Mus musculus [3] stood at 18.8 µmol/kg; with Mus musculus [2], 5.12 pmol/mouse. In data set [1], this compound came in with a half-life of 35 min. Moreover, the IC50 in the data set listed under Cavia porcellus is 2.05 nM.
Turning to `CC(NC(=O)CC(=O)N[C@H](Cc1ccccc1)NC(=O)[C@@H](C)NC(=O)[C@@H](N)Cc1ccc(O)cc1)c1ccccc1` (stereo partly specified), the Relative potency with Mus musculus [5] is 0.24. For the same compound, the ED50 amounted to 44.2 µmol/kg in the data set on Mus musculus [3] and 88.6 pmol/mouse with Mus musculus [2]. Also, the half-life stood at 65 min in data set [1] and 60 min in data set [4]. In addition, in the data set listed under Cavia porcellus, half-maximal inhibition (IC50) was put at 2.05 nM.
Take `C[C@@H](NC(=O)[C@@H](N)Cc1ccc(O)cc1)C(=O)N(C)[C@@H](Cc1ccccc1)NC(=O)CNC(=O)Cc1ccccc1`: in data set [1], the half-life came to 45 min. Further, the 50% inhibitory concentration (IC50) in the data set listed under Cavia porcellus was found to be 25.2 nM. Besides, the ED50 in the data set with Mus musculus [2] worked out at 292 pmol/mouse.
Regarding `C[C@@H](NC(=O)[C@@H](N)Cc1ccc(O)cc1)C(=O)N[C@@H](Cc1ccccc1)NC(=O)CC(=O)NO`, in data set [1], the half-life was 30 min. Moreover, in the data set listed under Cavia porcellus, the IC50 is 330 nM. In the data set with Mus musculus [2], this compound came in with an ED50 of 1600 pmol/mouse.
With `C[C@@H](NC(=O)[C@@H](N)Cc1ccc(O)cc1)C(=O)N[C@@H](Cc1ccccc1)C(=O)NCNC(=O)C12CC3CC(CC(C3)C1)C2`, the results for the ED50 in the data set on Mus musculus [3] and in the data set with Mus musculus [2] were 21.7 µmol/kg and 10.9 pmol/mouse, respectively. Also, the results for the half-life in data set [1] and in data set [4] were 80 min and 65 min, respectively. Besides, 0.31 nM corresponded to half-maximal inhibition in the data set listed under Cavia porcellus (IC50).
`C[C@@H](NC(=O)[C@@H](N)Cc1ccc(O)cc1)C(=O)N[C@@H](Cc1ccccc1)NC(=O)CC(N)=O` displayed a Relative potency in the data set with Mus musculus [6] of 3.11. Moreover, in data set [1], the half-life was 35 min. In the data set filed under Cavia porcellus, this compound registered an IC50 of 242 nM. In the data set on Mus musculus [2], this compound gave an ED50 of 974 pmol/mouse.

For the origin of these results see ChEMBL document CHEMBL1123014, “Synthesis and pharmacological activity of partially modified retro-inverso dermorphin tetrapeptides” (J Med Chem, 1985).
